Where a name gives a salt, the structure may show the parent alone. Read-outs that look alike come from different tables or passages of the source.
Experiment: In vitro monkey plasma assay
Type: in vitro ADME, cynomolgus monkey
Settings: for remaining at 0.25 h, 2 µM: time 15 min; for remaining at 0.5 h, 2 µM: time 30 min; for remaining at 1 h, 2 µM: time 60 min; for remaining at 2 h, 2 µM: time 120 min
Experimental: Briefly, pooled frozen plasma was thawed at 37 °C prior to experiments. Plasma was centrifuged at 3720 x g for 5 min and any clots were removed. All blanks and working solutions were aliquoted on an Apricot automation workstation (2 μL/well of working solution (100 μM) with 98 μL plasma for NACE2i peptide (CP300638) and control compounds somatostatin acetate and procaine hydrochloride). All reaction plates containing mixtures of NACE2i, somatostatin acetate, and procaine hydrochloride and plasma were incubated at 37 °C in a water bath for 0, 15, 30, 60, 120, 240, and 360 min. Incubation was stopped with 4% H3PO4 and stop solution (200 ng/mL tolbutamide and 200 ng/mL labetalol in MeOH) to precipitate protein. Each plate was sealed and shaken for 20 min and then centrifuged at 3720 x g at 4 °C for 20 min. After centrifugation, the Apricot workstation was used to transfer 150 μL supernatant to each bioanalysis plate, which was then sealed and shaken for 10 min prior to LC-MS/MS analysis as per the manufacturer’s guidelines. LC: Shimadzu LC 30-AD, MS: QTRAP 6500 + , Autosampler: CTC PAL.

[1] = male, monkey, pooled plasma, cynomolgus monkey plasma, n=2
[2] = monkey, plasma (pooled, frozen), cynomolgus monkey plasma, n=2

CCN(CC)CCOC(=O)c1ccc(N)cc1 [procaine hydrochloride, reference compound]
% Remaining (cynomolgus monkey plasma, time 0 min, n=2): 100% | remaining at 0.25 h, 2 µM [1]: 27.3% | remaining at 0.5 h, 2 µM [1]: 3.07% | remaining at 1 h, 2 µM [1]: 0.813% | remaining at 2 h, 2 µM [1]: 0.381% | remaining at 6 h, 2 µM (male, monkey, pooled plasma, cynomolgus monkey plasma, time 360 min, n=2, read-out: % Remaining): 0.0209% | remaining at 6 h, 2 µM (male, monkey, pooled plasma, pooled male cynomolgus monkey plasma, 2 µL of 100 µM working solution + 98 µL plasma, 37 °C, 360 min, LC-MS/MS, read-out: % remaining in plasma after 360 min incubation): 0%

C[C@H](N)C(=O)NCC(=O)N[C@H]1CSSC[C@@H](C(=O)O)NC(=O)[C@H](CO)NC(=O)[C@H]([C@@H](C)O)NC(=O)[C@H](Cc2ccccc2)NC(=O)[C@H]([C@@H](C)O)NC(=O)[C@H](CCCCN)NC(=O)[C@H](Cc2c[nH]c3ccccc23)NC(=O)[C@H](Cc2ccccc2)NC(=O)[C@H](Cc2ccccc2)NC(=O)[C@H](CC(N)=O)NC(=O)[C@H](CCCCN)NC1=O [somatostatin acetate, reference compound]
remaining at 0.25 h, 2 µM [2]: 77.1% | remaining at 0.5 h, 2 µM [2]: 61.3% | remaining at 1 h, 2 µM [2]: 50.2% | remaining at 2 h, 2 µM [2]: 29% | remaining at 4 h, 2 µM (monkey, plasma (pooled, frozen), cynomolgus monkey plasma, time 240 min, n=2): 18.1% | remaining at 6 h, 2 µM (monkey, plasma (pooled, frozen), cynomolgus monkey plasma, time 360 min, n=2, read-out: % Remaining): 3.81% | % remaining in plasma after 360 min incubation (pooled male cynomolgus monkey plasma, 2 µL of 100 µM working solution + 98 µL plasma, 37 °C, 360 min, LC-MS/MS): 3.8%
